Data set [1] relates to tumour cells (at least 4 of a panel of ovarian, breast, lung, pancreatic, placenta, colon cell lines). The data set is described as follows: In vitro cytotoxicity (cell proliferation, CellTiter-Glo), average over tumour cell line panel. The class given is cell-based. The settings on record: average pIC50 on all cell lines tested; 5 nights incubation; CellTiter-Glo. How it is done: The ability of representative compounds of Formula I to inhibit proliferation of tumour cells in vitro was evaluated in at least 4 of the following cell lines: OVCAR-3 (ovarian, ATCC), SKOV-3 (ovarian, ATCC), IGROV-1 (ovarian, national research council of Canada (NRC)), OV-90 (ovarian, ATCC), OVKATE (Ovarian, Japanese Collection of Research Bioresources (JCRB) (JCRB1044)), JIMT-1 (breast, NRC), SK-BR-3 (breast, ATCC), T-47D (breast, ATCC), ZR-75-1 (breast, ATCC), MDA-MB-468 (breast, AddexBio), BT-20 (breast, ATCC), BT-474 (breast, NRC), MDA-MB-175 (breast, AddexBio), A549 (lung, collaborator), NCI-H226 (lung, NRC), NCI-H661 (lung, NRC), NCI-H1573 (lung, ATCC). NCI-H1563 (lung, ATCC), H358 (lung, collaborator), EBC-1 (lung, Xenotech), H1299 (lung, NRC), NCI-H292 (lung, ATCC), HCC817 (lung, ATCC), NCI-H441 (lung, ATCC), MIA-PaCa-2 (pancreatic, ATCC), BxPC-3 (pancreatic, ATCC), Panc-1 (pancreatic, ATCC), AsPC-1 (pancreatic, ATCC), JEG-3 (placenta, AddexBio), HT-29 (colon, ATCC).
Cells were cultured per vendor instructions and in log-phase growth were detached by brief incubation in 0.05% trypsin, then resuspended in respective culturing media at 20,000 cells/mL (except for ZR-75 cells, which were resuspended at 10,000 cells/mL). 50 μL/well (˜1000 cells/well) were transferred to sterile tissue culture (TC)-treated 384-well plates (ThermoFisher Scientific, Catalogue #164610) and incubated overnight at 37° C. with 5% CO2 to allow the cells to adhere to the plate surface. The next day, in a sterile, V-bottom, 96-well plate, test articles were titrated 1:3 in complete growth medium, creating a 10-point dose response titration with compounds at 3.5-times the desired final concentration. 20 μL from each dilution were added to the 384-well plate containing the seeded cells and these plates were incubated at 37° C. with 5% CO2 for 5 nights. Cell viability was quantified by first incubating with 15 μL/well of CellTiter-Glo® (Promega, Catalogue #G7572) for 30 minutes, then measuring luminescence with a microplate luminometer (BioTek® Synergy™ H1 Microplate Reader). IC50 values were determined by GraphPad Prism (GraphPad Software, San Diego, CA).
The results are presented in Table 7.1 and discussed in Example 7. Table 7.1 presents the results as average pIC50 values. pIC50=−log (IC50), thus, for example, pIC50=9 is equivalent to IC50=1 nM, and pIC50=6 is equivalent to IC50=1 μM.

Data set [2] can be described thus: Lipophilicity by experimental HPLC retention time. Type of data set: physicochemical. The conditions noted are these: HPLC retention time as measure of lipophilicity; C18, 10 to 90% CH3CN/H2O with 0.1% FA over 25 min. How it is done: The ability to kill neighboring cells (i.e. bystander effect) is an important property for ADC payloads. For a payload comprising a compound of Formula I to be capable of bystander killing, membrane permeability (or transport) is required and the ability of compounds of Formula I to cross cell membranes and exert a cytotoxic effect was expected to be heavily influenced by lipophilicity.
Compounds were analyzed using an Agilent 1260 HPLC (Agilent Technologies, Inc., Santa Clara, CA) equipped with a Diode array detector and using a Phenomenex Kinetex EVO C18 150×4.6, 2.6 μm column (Phenomenex, Torrance, CA), eluting with 10 to 90% CH3CN/H2O with 0.1% FA over 25 min.

Data set [3] relates to herring sperm DNA. The experiment in a line: DNA melting temperature by differential scanning calorimetry (DSC). Type of data set: binding. The settings on record: for DNA melt (° C.): DSC, herring sperm DNA, DNA melting temperature = 68° C.; for DNA binding (in words): only DSC data in Table 7.1. The procedure: Representative compounds prepared as described in Example 2 were assessed in two complementary DNA-binding assays. Increased melting temperature of herring sperm DNA was measured using differential scanning calorimetry (DSC) and binding kinetics were determined by surface plasmon resonance (SPR) using a short DNA hairpin sequence.
DSC experiments were conducted as described in Leng, 2003, Nucleic Acids Res., 31 (21): […], using a Nano DSC (TA Instruments, New Castle, DE) and analyzed using the NanoAnalyze™ software package. Herring sperm DNA solution (Invitrogen 15634017, 10 mg/mL) was diluted to 1 mg/mL (1.4 mM base pair) in BPE buffer (6 mM Na2HPO4, 2 mM NaH2PO4, 1 mM Na4EDTA, pH 7.0). Test articles (20 μL, 10 mM in DMSO) were added and allowed reach equilibrium binding (>3 h), any insoluble material was removed by low-speed centrifugation, then samples were heated from 25 to 110° C. at a scan rate of 1° C./min. Melting curves were plotted and melting temperature was determined using NanoAnalyze™.

The source of these data is patent US20240376154A1, “BIS-INTERCALATING PEPTIDES, CONJUGATES AND METHODS OF USE” (ZYMEWORKS BC INC., priority 2023, published 2024).

Each structure is given as a SMILES string.

With `CC(C)[C@H]1C(=O)NC[C@@H](NC(=O)c2nc3ccccc3cc2O)C(=O)N2CCCC[C@H]2C(=O)NCC(=O)N(C)CC(=O)N2CCC[C@H]2C(=O)NC[C@@H](NC(=O)c2nc3ccccc3cc2O)C(=O)N2CCCC[C@H]2C(=O)NCC(=O)N(C)CC(=O)N1C` [Compound 77], the “pIC50 (average)” value in data set [1] worked out at 6.9. In addition, the “HPLC” value in data set [2] was determined as 15.0 min. Further, the “DNA melt (° C.)” value in data set [3] is 88 °C.

Consider `CC(C)[C@H]1C(=O)NC[C@@H](NC(=O)c2nc3ccccc3cc2O)C(=O)N2CCCC[C@H]2C(=O)NCC(=O)N(C)CC(=O)N2CCCC[C@H]2C(=O)NC[C@@H](NC(=O)c2nc3ccccc3cc2O)C(=O)N2CCCC[C@H]2C(=O)NCC(=O)N(C)CC(=O)N1C` [Compound 82], for which, in data set [1], the “pIC50 (average)” value was determined as 8.0. Besides, the “HPLC” value in data set [2] is listed as 16.4 min. The “DNA melt (° C.)” value in data set [3] is 92 °C.

Consider `CC(C)[C@H]1C(=O)NC[C@@H](NC(=O)c2nc3ccccc3cc2O)C(=O)N2CCCC[C@H]2C(=O)NCC(=O)N(C)CC(=O)N2CCCCC[C@H]2C(=O)NC[C@@H](NC(=O)c2nc3ccccc3cc2O)C(=O)N2CCCC[C@H]2C(=O)NCC(=O)N(C)CC(=O)N1C` [Compound 88, N,N′-((5aS,9R,15aS,24S,28R,34aS)-24-isopropyl-20,23,39-trimethyl-6,10,16,19,22,25,29,35,38,41-decaoxotetracontahydro-1H,12H-azepino[1,2-j]dipyrido[1,2-a:1′,2′-q][1,4,7,10,13,17,20,23,26,29]decaazacyclodotriacontine-9,28-diyl)bis(3-hydroxyquinoline-2-carboxamide)], for which the “pIC50 (average)” value in data set [1] is on record as 8.5. Besides, the “HPLC” value in data set [2] is listed as 16.4 min. Also, in data set [3], the “DNA melt (° C.)” value was 88 °C.

`CC(C)[C@H]1C(=O)NC[C@@H](NC(=O)c2nc3ccccc3cc2O)C(=O)N2CCCC[C@H]2C(=O)NCC(=O)N(C)CC(=O)N(C)[C@@H](C2CCCCC2)C(=O)NC[C@@H](NC(=O)c2nc3ccccc3cc2O)C(=O)N2CCCC[C@H]2C(=O)NCC(=O)N(C)CC(=O)N1C` [Compound 97, N,N′-((7R,11S,19aS,26R,30S,38aS)-11-cyclohexyl-30-isopropyl-12,15,31,34-tetramethyl-6,10,13,16,19,25,29,32,35,38-decaoxohexatriacontahydro-2H,6H-dipyrido[1,2-a:1′,2′-q][1,4,7,10,13,17,20,23,26,29]decaazacyclodotriacontine-7,26-diyl)bis(3-hydroxyquinoline-2-carboxamide)]: the “pIC50 (average)” value in data set [1] was 8.4. Besides, in data set [2], the “HPLC” value came to 18.9 min. Also, the “DNA melt (° C.)” value in data set [3] amounted to 86 °C.

For the compound `CC(C)[C@H]1COC[C@@H](NC(=O)c2nc3ccccc3cc2O)C(=O)N2CCCC[C@H]2C(=O)NCC(=O)N(C)CC(=O)N(C)[C@@H](C(C)C)COC[C@@H](NC(=O)c2nc3ccccc3cc2O)C(=O)N2CCCC[C@H]2C(=O)NCC(=O)N(C)CC(=O)N1C` [Compound 172, N,N′-((7R,11S,19aS,26R,30S,38aS)-11,30-diisopropyl-12,15,31,34-tetramethyl-6,13,16,19,25,32,35,38-octaoxodotriacontahydro-2H,6H,10H,25H-dipyrido[2,1-b1: 2′,1′-l][1,17]dioxa[4,7,10,13,20,23,26,29]octaazacyclodotriacontine-7,26-diyl)bis(3-hydroxyquinoline-2-carboxamide)], the “pIC50 (average)” value in data set [1] is given as 7.9. The “HPLC” value in data set [2] was determined as 18.2 min. For the same compound, the “DNA melt (° C.)” value in data set [3] was 91 °C.

Turning to `CN1CC(=O)N2CCCC[C@H]2COC[C@@H](NC(=O)c2nc3ccccc3cc2O)C(=O)N2CCCC[C@H]2C(=O)NCC(=O)N(C)CC(=O)N2CCCC[C@H]2C(=O)NC[C@@H](NC(=O)c2nc3ccccc3cc2O)C(=O)N2CCCC[C@H]2C(=O)NCC1=O` [Compound 187, N,N′-((7R,10aS,22aS,29R,32aS,44aS)-18,40-dimethyl-6,16,19,22,28,32,38,41,44-nonaoxodotetracontahydro-6H-tetrapyrido[2,1-b1: 2′,1′-c: 2″,1″-1:2′″,1′″-s][1]oxa[4,7,10,13,17,20,23,26,29]nonaazacyclodotriacontine-7,29-diyl)bis(3-hydroxyquinoline-2-carboxamide)], the “pIC50 (average)” value in data set [1] is on record as 8.0. Besides, in data set [2], the “HPLC” value was determined as 16.6 min. For the same compound, the “DNA melt (° C.)” value in data set [3] was determined as 94 °C.

Consider `CC(C)[C@H]1COC[C@@H](NC(=O)c2nc3ccccc3cc2O)C(=O)N2CCCC[C@H]2C(=O)NCC(=O)N(C)CC(=O)N(C)[C@@H](C(C)C)C(=O)OC[C@@H](NC(=O)c2nc3ccccc3cc2O)C(=O)N2CCCC[C@H]2C(=O)NCC(=O)N(C)CC(=O)N1C` [Compound 203, N,N′-((7R,11S,19aS,26R,30S,38aS)-11,30-diisopropyl-12,15,31,34-tetramethyl-6,10,13,16,19,25,32,35,38-nonaoxodotriacontahydro-2H,6H,10H,25H-dipyrido[2,1-b1: 2′,1′-1][1,17]dioxa[4,7,10,13,20,23,26,29]octaazacyclodotriacontine-7,26-diyl)bis(3-hydroxyquinoline-2-carboxamide)], for which, in data set [1], the “pIC50 (average)” value was determined as 8.5. Besides, the “HPLC” value in data set [2] turned out to be 20.2 min. In data set [3], the “DNA melt (° C.)” value came to 96 °C.

In the case of `CC(C)[C@H]1C(=O)NC[C@@H](NC(=O)c2nc3ccccc3cc2O)C(=O)N2CCCC[C@H]2C(=O)NCCOCC(=O)N(C)[C@@H](C(C)C)C(=O)NC[C@@H](NC(=O)c2nc3ccccc3cc2O)C(=O)N2CCCC[C@H]2C(=O)NCCOCC(=O)N1C` [Compound 404, N,N′-((7R,11S,19aS,26R,30S,38aS)-11,30-diisopropyl-12,31-dimethyl-6,10,13,19,25,29,32,38-octaoxodotriacontahydro-2H,6H,16H,25H-dipyrido[1,2-a1: 1′,2′-k][1,17]dioxa[4,7,11,14,20,23,27,30]octaazacyclodotriacontine-7,26-diyl)bis(3-hydroxyquinoline-2-carboxamide)], the “pIC50 (average)” value in data set [1] is recorded as “Inactive”. Also, the “HPLC” value in data set [2] was found to be 16.0 min. Further, in data set [3], the “DNA melt (° C.)” value was 68^1 °C and the “DNA binding (in words)” value is “did not demonstrate measurable DNA binding”.

In the case of `O=C(N[C@@H]1CNC(=O)[C@@H]2CCCCN2C(=O)COCCNC(=O)[C@@H]2CCCCN2C(=O)[C@H](NC(=O)c2nc3ccccc3cc2O)CNC(=O)[C@@H]2CCCCN2C(=O)COCCNC(=O)[C@@H]2CCCCN2C1=O)c1nc2ccccc2cc1O` [Compound 409, N,N′-((7R,10aS,22aS,29R,32aS,44aS)-6,10,16,22,28,32,38,44-octaoxotetracontahydro-2H,19H-tetrapyrido[1,2-a1: 1′,2′-d: 1″,2″-k: 1′″,2′″-t][1,17]dioxa[4,7,11,14,20,23,27,30]octaazacyclodotriacontine-7,29-diyl)bis(3-hydroxyquinoline-2-carboxamide)], the “pIC50 (average)” value in data set [1] is “inactive”. Further, in data set [2], the “HPLC” value worked out at 16.1 min. Besides, in data set [3], the “DNA melt (° C.)” value was 68^1 °C and the “DNA binding (in words)” value is “did not demonstrate measurable DNA binding”.
